According to article PMC4601027, “Structural Analysis of the Pin1-CPEB1 interaction and its potential role in CPEB1 degradation” (Scientific Reports, 2015):
Non-standard residues stand in square brackets, D forms with d. Residues, ends and D or L forms follow the SMILES beside them. pS = N[C@@H](COP(=O)(O)O)C(=O)O

Experiments:
[1] = target: T1, Pin1 WW domain (Uniprot: Q13526, Residues: 1–41) (Homo sapiens, UniProt Q13526); experiment: ITC titration of CPEB1 phosphopeptides with Pin1 WW domain; details: nano ITC calorimeter, 12 °C or 25 °C, 20 mM Tris-HCl pH 7.0, 130 mM NaCl, single binding site model, repeated at least twice
T1 construct: The Pin1 WW domain (Uniprot: Q13526, Residues: 1–41); His6 (N); GST (N); made in house
Source text: (§1) Pin1 interacts with phosphorylated CPEB1 in Xenopus oocytes, as well as in mammalian cells. […] Therefore, to mimic the in vivo scenario, we measured the affinities of the interactions between recombinant proteins (the isolated WW domain and also the full-length protein) with several peptides containing the phosphorylation sites within CPEB1. These peptides were synthesized using Fmoc Solid-Phase Peptide Synthesis (SPPS) (Supplementary Fig 2). […] All affinities were found in the low μM range (Fig. 2a,b), with the exception of the pS423 site of CPEB1, located in the linker region between the RRM domains, whose affinity was considerably lower than the rest. Our results reveal that the peptides containing pS184 and pS210—the latter known to be essential for CPEB degradation—display the best affinities for Pin1 in vitro. The affinity of the phosphorylation-dependent interaction was about 10-fold higher than that of the unphosphorylated CPEB N-terminal counterparts. In addition, in most of the peptides examined, similar binding affinities and stoichiometries (1:1) were observed using either the full-length Pin1 protein or the truncated WW domain. Only when analyzing the interaction of CPEB1 pS210 and the full-length Pin1 protein we obtained a stoichiometry below 1 (n = 0.85), which cannot be attributed to systematic errors in the determination of the protein concentration. This discrepancy might indicate that in addition to the main complex consisting of a 1:1 protein/peptide ratio, a small population with a 1:2 stoichiometry is also present in solution.
ITC measurements were performed using a nano ITC calorimeter (TA Instruments) at 12 °C or 25 °C. Protein samples were prepared in 20 mM Tris-HCl pH 7.0 and 130 mM NaCl. All samples were degassed and centrifuged prior to the experiments. Protein concentration was measured in a NanoDrop™ 2000 measuring the UV absorption at 280 nm. Peptide concentration was determined by amino acid analysis. […]

[2] = target: T2, Pin1 full-length (Homo sapiens, UniProt Q13526); experiment: ITC titration of CPEB1 phosphopeptides with Pin1 full-length; format: binding; details: for Kd: nano ITC calorimeter, 12 °C or 25 °C, 20 mM Tris-HCl pH 7.0, 130 mM NaCl, repeated at least twice, for pS210 one Pin1 molecule could interact with two peptides, read-out: Pin1 FL KD
T2 construct: The full-length Pin1 clone was obtained from Addgene; His6 (N); provided by Dustin Maly's Lab
Source text: as §1
ITC measurements were performed using a nano ITC calorimeter (TA Instruments) at 12 °C or 25 °C. Protein samples were prepared in 20 mM Tris-HCl pH 7.0 and 130 mM NaCl. All samples were degassed and centrifuged prior to the experiments. Protein concentration was measured in a NanoDrop™ 2000 measuring the UV absorption at 280 nm. Peptide concentration was determined by amino acid analysis. Depending on the expected affinity, sigmoidal curves were optimized by injecting 10- to 15-fold concentrated peptide in 16 × 3 μL steps in a cell containing 190 μL of protein at an adjusted concentration of between 150 and 200 μM , stirring at 200 revolutions per minute (rpm). The delay between injections was set to be of 3 minutes. The NanoAnalyze software (TA Instruments) was used to determine the binding isotherms, assuming a single binding site in each molecule (except for the Pin1 full-length interaction with the CPEB1 pS210 peptide, where one Pin1 molecule could interact with two peptides). Baseline controls were acquired with buffer and pure peptide solutions. Measurements were repeated at least twice.

T2 sequence (Q13526 whole entry): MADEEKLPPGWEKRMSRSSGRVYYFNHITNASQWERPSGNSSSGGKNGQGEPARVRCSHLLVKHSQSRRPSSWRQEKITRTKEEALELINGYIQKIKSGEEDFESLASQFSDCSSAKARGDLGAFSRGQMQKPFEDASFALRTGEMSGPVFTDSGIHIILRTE
T1 sequence (Q13526 1-41): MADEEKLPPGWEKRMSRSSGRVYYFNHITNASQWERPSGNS

Row | Kd [1] | Kd [2] | stoichiometry (n), full-length Pin1 ([2]; protein/peptide stoichiometry) | Compound
1 | 75.4 ± 12.7 µM | 83.5 ± 11.5 µM | – | CC(=O)NCC(=O)N[C@@H](CCCCN)C(=O)N1CCC[C@H]1C(=O)N[C@@H](COP(=O)(O)O)C(=O)N1CCC[C@H]1C(=O)N[C@@H](CC(C)C)C(=O)NCC(=O)N[C@@H](Cc1ccccc1)C(=O)N[C@@H](CC(C)C)C(=O)N[C@H](C(N)=O)[C@@H](C)O [CPEB1 pS144] (Ac-GKP[pS]PLGFLT-NH2; N-terminus assumed)
2 | – | – | 0.85 | CC[C@H](C)[C@H](NC(=O)[C@H](CCCNC(=N)N)NC(=O)[C@H](CC(C)C)NC(C)=O)C(=O)N[C@@H](COP(=O)(O)O)C(=O)N1CCC[C@H]1C(=O)N1CCC[C@H]1C(=O)N[C@@H](CC(C)C)C(=O)N[C@@H](Cc1c[nH]cn1)C(=O)N[C@@H](Cc1ccccc1)C(=O)N[C@@H](CC(C)C)C(=O)N1CCC[C@H]1C(=O)N[C@@H](CC(C)C)C(=O)NCC(=O)NCC(N)=O [CPEB1 pS210] (Ac-LRI[pS]PPLHFLPLGG-NH2; N-terminus assumed)
3 | 71.3 ± 9.3 µM | 84.3 ± 10.6 µM | – | CSCC[C@H](NC(=O)[C@H](CO)NC(C)=O)C(=O)N[C@@H](CC(C)C)C(=O)N[C@@H](CC(N)=O)C(=O)N[C@@H](COP(=O)(O)O)C(=O)N1CCC[C@H]1C(=O)N[C@@H](CCSC)C(=O)NCC(=O)N[C@@H](CCCCN)C(N)=O [CPEB1 pS138] (Ac-SMLN[pS]PMGK-NH2; N-terminus assumed)
4 | 47.6 ± 7.6 µM | 42.4 ± 8.7 µM | – | CC(=O)N[C@@H](C)C(=O)N[C@@H](C)C(=O)N[C@H](C(=O)N[C@H](C(=O)N[C@@H](COP(=O)(O)O)C(=O)N1CCC[C@H]1C(=O)N[C@@H](CC(C)C)C(=O)NCC(N)=O)C(C)C)[C@@H](C)O [CPEB1 pS248] (Ac-AATV[pS]PLG-NH2; N-terminus assumed)
